# Data as given in US8378098B2, “Imidazol[1,2-α]quinoxalines and derivatives for the treatment of cancers” (Universite de Montpellier I, priority 2007, dated 2013).
# Where two headings read alike, the source gives them in different places.
# How the values were obtained:
# A375 melanoma = assay: in vitro cytotoxicity (antiproliferative activity) on A375 melanoma line; format: cell-based, human; details: for activity compared with EAPB0203: A375, comparing IC50 values of Table 3
# Text: Antiproliferative activity was first measured on a cancer cell line of human origin, A375 melanoma.
# Imiquimod and fotemustine (Muphoran®) are used as controls in this study.
# (§1) Several human carcinoma cell lines were used: • Lines A375, M4Be, RPMI7591 from human melanoma. • Line LS174T from colon carcinoma. • Line A 2780 from ovarian carcinoma. • The Raji line from B lymphoma. • Line MCF7 from breast carcinoma.
# IC50 (concentration of the product tested which inhibits 50% of the maximum cell proliferation observed in the control wells) is determined graphically from the curve of the percentage of cell proliferation as a function of concentration of the product tested.
# RPMI7591 (melanoma) = assay: in vitro cytotoxicity on RPMI7591 melanoma line; format: cell-based; details: Homo sapiens, read-out: IC50 RPMI7591
# Text: as §1
# M4Be human melanoma = assay: anti-proliferative activity in vivo, M4Be human melanoma xenografted in athymic mice; details: 20 mg/kg once per week i.p.; sacrifice at tumour volume 2 cm^3
# Protocol: FIG. 1: Effects of fotemustine (20 mg/kg once per week for 3 weeks) and EAPB0203 (20 mg/kg twice per week for 3 weeks) on tumour growth in athymic Swiss mice xenografted with M4Be human melanoma cell line.
# Δ, control; ▪, EAPB0203; ●, fotemustine. The data are the results of only one experiment carried out on six mice per group. The results are represented as mean±SEM.
# In this study, data are presented relating to the activity of EAPB0203 on the volume of a type of human melanoma tumour model (M4Be lines), xenografted in athymic mice. This study required as a preliminary step several tests of grafts of human melanoma cell lines in athymic mice before establishing the adequate animal model. The in vivo study was performed following the in vitro experiments described previously.
# The activity and specificity of EAPB0203 in vivo on tumour growth of human melanoma are evaluated by monitoring tumour development in mice carrying M4Be melanoma treated by administration of fotemustine and EAPB0203 at various doses.
# For this study, 18 Swiss nude mice (3 groups of 6 mice) were used. M4Be cancer cells in suspension were injected subcutaneously into the right flank of each athymic Swiss nude female 7-week-old mouse weighing 20-22 g at the beginning of the protocol. The mice were then maintained in a sterile atmosphere and received aseptic food and water. The weight of the mouse and the growth of the tumour in three dimensions were recorded twice a week.
# A first group of 6 mice (reference) will receive fotemustine by intra-peritoneal route at a dose of 20 mg/kg once per week for 3 weeks, beginning 7 days after inoculation at the time when the tumour will be visible and palpable. A second group of 6 mice will receive EAPB0203 at the same dose of 20 mg/kg via intra-peritoneal route but twice per week (40 mg/kg per week). The third group (control) of 6 mice will receive only the administration carrier. Tumour volume is calculated by the following formula: length X width X height X 0.52, and is expressed as mean±SEM mm^3.
# For fotemustine and EAPB0203, the sequence of administrations is a treatment of three weeks, then two weeks without treatment, and then a second treatment of three weeks.
# M4Be (melanoma) = assay: in vitro cytotoxicity on M4Be melanoma line; format: cell-based; details: Homo sapiens, read-out: IC50 M4Be
# Text: as §1
# Raji (B lymphoma) = assay: in vitro cytotoxicity on Raji B lymphoma line; format: cell-based, human; details: Table 2, unit inferred
# Text: as §1
# in vivo = details: rat
# Protocol: (§2) Methods of assaying compounds EAPB0203, EAPB0503 and EAPB0603 by high performance liquid chromatography and detection by mass spectrometry (LC/ESI-MS) were developed and validated in human and rat plasmas. Pre-treatment of the samples consists of a liquid solid extraction preceded by precipitation of plasma proteins in acid medium. The chromatographic column used is C8 Zorbax eclipse XDB and the mobile phase (gradient) a mixture of acetonitrile and formate buffer (pH 3) (flow rate, 0.8 ml/min). The […] from 92 to 113%. The extraction coefficients are higher than 72%. The quantification limit is 5 μg/l for all analytes. Stability tests of the compounds in the matrices were also carried out. These methods were used to determine the pharmacokinetic parameters of compounds EAPB0203, EAPB0503 and EAPB0603 in the rat. The lethal doses 50% of compounds EAPB0203 and EAPB0503 are respectively 14.8 and 7.6 mg/kg.
# [1] = lethal doses 50% reported in the pharmacokinetic study; format: in vivo; details: species and route not stated in the sentence (rat study)
# Protocol: as §2
# MCF7 (breast cancer) = assay: in vitro cytotoxicity on MCF7 breast cancer line; format: cell-based; details: Homo sapiens, Table 2, unit inferred
# Text: as §1
# LS174T (colon cancer) = assay: in vitro cytotoxicity on LS174T colon cancer line; format: cell-based; details: Homo sapiens, Table 2, unit inferred
# Text: as §1
# [2] = Homo sapiens, A-375, A375, Table 3, read-out: IC50
# [3] = Homo sapiens, A-375, A375 melanoma line, Table 1, IC50 and standard deviation, read-out: IC50
# [4] = A375, comparison of IC50 values
molecule,measurement,setting,value
"CNc1nc2ccccc2n2c(-c3cccc(F)c3)cnc12 [EAPB01403, 1-(3-fluorophenyl)-N-methylimidazo[1,2-a]quinoxalin-4-amine]",IC50,A375 melanoma; [2],24.9 ± 0.27 µM
"CCOP(=O)(OCC)C(C)NC(=O)N(CCCl)N=O (stereo not drawn) [Fotemustine, fotemustine, reference compound]",IC50,RPMI7591 (melanoma),125 ± 49 µM
same,day on which the last mice were euthanatized,M4Be human melanoma,76 days
same,IC50,"A375 melanoma; Homo sapiens, A-375, read-out: IC50 A375",173 ± 24 µM
same,IC50,M4Be (melanoma),326 ± 34 µM
CNc1nc2ccccc2n2c(-c3cccc(C(F)(F)F)c3)cnc12 [EAPB01103],IC50,"A375 melanoma; A375, Table 3, read-out: IC50",1.28 ± 0.18 µM
"CN(Cc1cnc2nc(N)nc(N)c2n1)c1ccc(C(=O)N[C@@H](CCC(=O)O)C(=O)O)cc1 [Methothrexate, methothrexate]",IC50,Raji (B lymphoma),0.04 ± 0.005 µM
"CNc1nc2ccccc2n2c(-c3ccccc3OC)cnc12 [EAPB0803, 1-(2-methoxyphenyl)-N-methylimidazo[1,2-a]quinoxalin-4-amine]",IC50,A375 melanoma; [2],122 ± 25 µM
"Clc1nc2ccccc2n2c(CCc3ccccc3)cnc12 [EAPB0201, 4-Chloro-1-(2-phenylethyl)imidazo[1,2-a]quinoxaline]",IC50,A375 melanoma; [3],24 ± 0.5 µM
"CCOc1cccc(-c2cnc3c(NC)nc4ccccc4n23)c1 [EAPB0903, 1-(3-ethoxyphenyl)-N-methylimidazo[1,2-a]quinoxalin-4-amine]",activity compared with EAPB0203,A375 melanoma,higher than that of EAPB0203
same,IC50,A375 melanoma; [2],0.3 ± 0.01 µM
"CNc1nc2ccccc2n2c(-c3cccc(OC)c3)cnc12 [EAPB0503, 1-(3-methoxyphenyl)-N-methylimidazo[1,2-a]quinoxalin-4-amine]",Vd,"in vivo; iv, 5 mg/kg",5.6 L/kg
same,area under the curve of plasma concentrations,"in vivo; iv, 5 mg/kg",2310 ng·h/mL
same,clearance,"in vivo; iv, 5 mg/kg",36.7 mL/min/kg
same,half-life,"in vivo; iv, 5 mg/kg",1.76 h
same,lethal doses 50%,[1],7.6 mg/kg
same,activity compared with EAPB0203,A375 melanoma,higher than that of EAPB0203
same,IC50,A375 melanoma; [2],0.18 ± 0.09 µM
"CC(C)Cn1cnc2c(N)nc3ccccc3c21 [Imiquimod, imiquimod]",IC50,"RPMI7591 (melanoma); Table 2, unit inferred",53.7 ± 9.8 µM
same,IC50,MCF7 (breast cancer),145 ± 7 µM
same,IC50,"A375 melanoma; Homo sapiens, A-375, Table 2, unit inferred, read-out: IC50 A375",70.3 ± 4.3 µM
same,IC50,"M4Be (melanoma); Table 2, unit inferred",33.5 ± 7.7 µM
same,IC50,LS174T (colon cancer),34.4 ± 9.7 µM
same,IC50,"Raji (B lymphoma); Homo sapiens, Raji",139 ± 12 µM
"CNc1nc2ccccc2n2c(-c3ccc(OC)cc3)cnc12 [EAPB0703, 1-(4-methoxyphenyl)-N-methylimidazo[1,2-a]quinoxalin-4-amine]",activity compared with EAPB0203,A375 melanoma,higher than that of EAPB0203
same,IC50,A375 melanoma; [2],0.37 ± 0.4 µM
"CCc1c2c(nc3ccc(OC(=O)N4CCC(N5CCCCC5)CC4)cc13)-c1cc3c(c(=O)n1C2)COC(=O)[C@]3(O)CC [Irinotecan, irinotecan]",IC50,LS174T (colon cancer),1.16 ± 0.07 µM
"CNc1nc2ccccc2n2c(CC(C)C)cnc12 [EAPB0103, 1-Isobutyl-N-methylimidazo[1,2-a]quinoxalin-4-amine]",IC50,A375 melanoma; [3],31.6 ± 2 µM
"CNc1nc2ccccc2n2c(-c3cccc([N+](=O)[O-])c3)cnc12 [EAPB01603, 1-(3-nitrophenyl)-N-methylimidazo[1,2-a]quinoxalin-4-amine]",IC50,A375 melanoma; [2],40 ± 3.9 µM
"CN(C)c1nc2ccccc2n2c(CCc3ccccc3)cnc12 [EAPB0204, N,N-Dimethyl-1-(2-phenylethyl)imidazo[1,2-a]quinoxalin-4-amine]",IC50,A375 melanoma; [3],80.1 ± 7 µM
"CNc1nc2ccccc2n2c(-c3cccc(C(=O)O)c3)cnc12 [EAPB01303, 1-(3-carboxyphenyl)-N-methylimidazo[1,2-a]quinoxalin-4-amine]",IC50,A375 melanoma; [2],3.47 ± 0.55 µM
"CNc1nc2ccccc2n2cc(-c3cccc(OC)c3)nc12 [N-methyl-2-(3-methoxyphenyl)imidazo[1,2-a]quinoxalin-4-amine]",activity times higher than EAPB0203,A375 melanoma; A375,100 times
same,activity times higher than that of EAPB0503,A375 melanoma; A375,10 times
same,IC50,"A375 melanoma; Homo sapiens, A-375, melanoma (A375), text b219, read-out: IC50",0.018 µM
"CC(C)Cc1cnc2c(N(C)C)nc3ccccc3n12 [EAPB0104, 1-Isobutyl-N,N-dimethylimidazo[1,2-a]quinoxalin-4-amine]",IC50,A375 melanoma; [3],66.3 ± 7.5 µM
"CNc1nc2ccccc2n2c(-c3cccc(Cl)c3)cnc12 [EAPB01203, 1-(3-chlorophenyl)-N-methylimidazo[1,2-a]quinoxalin-4-amine]",IC50,A375 melanoma; [2],1.78 ± 0.35 µM
"CNc1nc2ccccc2n2c(-c3cccc(O)c3)cnc12 [EAPB0603, 1-(3-hydroxyphenyl)-N-methylimidazo[1,2-a]quinoxalin-4-amine]",metabolic relation,in vivo,active metabolite of EAPB0503
same,elimination half-life (metabolite),"in vivo; iv, 5 mg/kg",4.7 h
same,activity compared with EAPB0203,A375 melanoma,higher than that of EAPB0203
same,IC50,A375 melanoma; [2],0.56 ± 0.12 µM
"CNc1nc2ccccc2n2c(-c3cccc(C#N)c3)cnc12 [EAPB01503, 1-(3-cyanophenyl)-N-methylimidazo[1,2-a]quinoxalin-4-amine]",IC50,A375 melanoma; [2],27 ± 2.2 µM
"COc1cccc2c1C(=O)c1c(O)c3c(c(O)c1C2=O)C[C@@](O)(C(=O)CO)C[C@@H]3O[C@H]1C[C@H](N)[C@H](O)[C@H](C)O1 [Doxorubicine, doxorubicin]",IC50,MCF7 (breast cancer),0.13 ± 0.01 µM
"CNc1nc2ccccc2n2c(-c3cccc(Br)c3)cnc12 [EAPB01003, 1-(3-bromophenyl)-N-methylimidazo[1,2-a]quinoxalin-4-amine]",activity compared with EAPB0203,A375 melanoma,higher than that of EAPB0203
same,IC50,A375 melanoma; [2],0.65 ± 0.02 µM
"1-furan-N-methylimidazo[1,2-a]quinoxalin-4-amine [EAPB01703]",IC50,"A375 melanoma; A375, Table 3, read-out: IC50",74.1 ± 3.1 µM
"COc1nc2ccccc2n2c(CCc3ccccc3)cnc12 [EAPB0206, 4-Methoxy-1-(2-phenylethyl)imidazo[1,2-a]quinoxaline]",IC50,A375 melanoma; [3],47.8 ± 5 µM
"Nc1nc2ccccc2n2c(CCc3ccccc3)cnc12 [EAPB0202, 1-(2-phenylethyl)imidazo[1,2-a]quinoxalin-4-amine]",activity times higher than that of fotemustine,A375 melanoma; [4],70 times
same,activity times higher than that of imiquimod,A375 melanoma; [4],30 times
same,times more active than EAPB0204,A375 melanoma; [4],~2 times
same,IC50,A375 melanoma; [3],2.35 µM
"CNc1nc2ccccc2n2c(-c3ccccc3)cnc12 [EAPB0403, N-methyl-1-phenylimidazo[1,2-a]quinoxalin-4-amine]",IC50,A375 melanoma; [2],2.19 ± 0.08 µM
